Results taken from patent publication US9617517B2, “Small chemical compound which promotes induction of differentiation of stem cells into insulin-producing cells and method for inducing differentiation of stem cells into insulin-producing cells using said small chemical compound” (NATIONAL UNIVERSITY CORPORATION KUMAMOTO UNIVERSITY, priority 2011, dated 2017).
“Also recorded” adds a separate entry of the source.

How the values were obtained:
[1] = system: mouse ES cells (Pdx1/GFP); assay: Differentiation of mouse ES cells into insulin positive cells on nano fiber plate, immunostaining and quantitative image analysis; type: cell-based; settings: for effect on differentiation into insulin-expressing cells: compound added d11-d17, insulin staining d17 (FIG. 4, 5, 7, 8, 10)
Text: Two ES cell lines, one expressing green fluorescent protein (GFP) under the control of insulin 1 promoter, designed ING (Higuchi Y., Shiraki N., Yamane K, Qin Z., Mochitate K., Araki K., Senokuchi K., Yamagata K., Hara M., Kume K., and Kume S., Synthesized basement membranes direct the differentiation of mouse embryonic stem cells into pancreatic lineages. J. Cell Science, 123, 2733-2742, 2010), and the other one expressing GFP under the control of Pdx1 promoter, designated SK7 (Shiraki N, Yoshida T, Araki K, et al. Guided differentiation of embryonic stem cells into Pdx1-expressing regional-specific definitive endoderm. Stem Cells. 2008; 26:874-885), were used. Both cell lines were maintained on mouse embryonic fibroblast (MEF) feeders in Glasgow minimum essential medium (Invitrogen) containing 1000 units/ml leukemia inhibitory factor (LIF; Chemicon), 15% Knocked-out Serum Replacement (KSR; Gibco), 1% fetal bovine serum (FBS; Hyclone), 100 μM nonessential amino acids (NEAA; Invitrogen), 2 mM L-glutamine (L-Gln; Invitrogen), 1 mM sodium pyruvate (Invitrogen), 50 units/ml penicillin and 50 μg/ml streptomycin (PS; Invitrogen) and 100 μM β-mercaptoethanol (β-ME; Sigma), as ES maintenance medium.
For the differentiation studies, ES cells were plated at 5,000 cells per well in Corning 96 well plate with Ultra-Web Synthetic Polyamine Surface (#3873XX1, Corning Coster, Cambridge, Miss.), and cultured. The cells were cultured in Dulbecco's Modified Eagle Medium (DMEM: Invitrogen, Glasgow, UK) containing 4500 mg/L glucose, supplemented with NEAA, L-Gln, PS, β-ME, 10 μg/ml insulin (Sigma-Aldrich), 5.5 μg/ml transferrin (Sigma-Aldrich), 6.7 pg/ml selenium (Sigma-Aldrich), and 0.25% Albmax (Invitrogen), 10 ng/mL recombinant human activin-A (R&D Systems, Minneapolis, Minn.), 5 ng/mL; recombinant human bFGF for 7 days (d1-d7) (I of FIG. 1). And then, the medium was changed to RPMI 1640 medium (Invitrogen) containing 2000 mg/L glucose (Sigma, St Louis, Mo.), 1 μM Retinoic acid (Sigma-Aldrich), 50 ng/ml Human Recombinant Fibroblast Growth Factor-10 (Peprotech, Rocky Hill, N.J.), B27 SUPPLEMENT (Invitrogen) and 0.25 μM 3-Keto-N-(aminoethyl-aminocaproyl-dihydrocinnamoyl) cyclopamine Shh Signaling Antagonist II (Calbiochem, San Diego, Calif.) on d7 to d11 (II of FIG. 1). Finally, the medium was switched to DMEM containing 1000 mg/L glucose supplemented with NEAA, L-Gln, PS, β-ME, 10 μg/ml insulin (Sigma-Aldrich), 5.5 μg/ml transferrin (Sigma-Aldrich), 6.7 pg/ml selenium (Sigma-Aldrich), 0.25% Albmax (Invitrogen) and 10 mM nicotinamide (Sigma-Aldrich) on d11 to d17 (III of FIG. 1). Media were replaced every 2 days with fresh medium and growth factors until d17.
All tested small chemical compounds were solved in dimethyl sulfoxide (DMSO) at given concentration. Compounds were added on d11, d13 and d15 in a medium. Final concentration of DMSO was adjusted at 1.0% in all experiments for compounds.
After 17 days cell culture, cultured ES cells were fixed in 4% paraformaldehyde in PBS for 30 min at room temperature, and rinsed several times with PBS. Then, cells were incubated in the added diluted primary antibody in 20% Blocking One (Nacalai tesque, Tokyo, Japan) in PEST (0.1% Tween-20 in PBS) in a humidified chamber for overnight at 4° C. After washing the cells in PBST, cells were incubated with the secondary antibody in 20% Blocking One for 2 hr at room temperature in dark. After washing off the secondary antibody in PBST, cells were counterstained with […] (DAPI) (Roche Diagnostics). The following antibodies were used as First antibodies: Rabbit anti-GFP (MBL International Corp., Woburn, Mass.), Mouse anti-Insulin (Sigma). The following antibodies were used as Secondary antibodies: Alexa 568-conjugated, Alexa 488-conjugated antibodies (Invitrogen) Cells were counterstained with DAPI (Roche Diagnotics, Basel, Switzerland).

Drd2KD cells = assay: Differentiation into insulin-producing cells in dopamine D2 receptor knock-down cell line; type: cell-based, mouse; settings: 0.63 μM reserpine, Drd2KD cells (FIG. 9B)
Experimental: In the Vmat2-knockdown and Drd2-knockdown assays, Expression Arrest non-silencing control shRNA (Open Biosystems, #RHS4080), Vmat2 hRNA (Open Biosystems, #RMM3981-97058457 and #RMM3981-97058458) or Drd2 hRNA (Open Biosystems, #RMM3981-9594258) lentiviral vectors were used. For virus preparation, HEK293-FT cells (Invitrogen) were seeded on a plate medium the day before transfection. After overnight culture, the cells were transfected with lentiviral vectors and ViraPower™ Lentiviral Packaging Mix (Invitrogen) using FuGENE6 Transfection Reagent (Roche) according to the manufacturer's protocol. Cells were incubated in the ES maintenance medium for 24 hours, and viral supernatants were collected. Then, SK7 cells were infected with the viral supernatants. After incubation for 24 hours, the virus-containing medium was replaced with fresh ES maintenance medium. Further 24 hours later, the infected cells were selected using […] puromycin. The surviving cells were cloned as a knockdown-cell lines.
To confirm that a dopamine signal suppresses the differentiation into insulin-expressing cells through activation of its receptor, a dopamine D2 receptor knock-down cell line, Drd2KD was established (FIG. 9A).

Structure (SMILES): COC(=O)[C@H]1[C@H]2C[C@@H]3c4[nH]c5cc(OC)ccc5c4CCN3C[C@H]2C[C@@H](OC(=O)c2cc(OC)c(OC)c(OC)c2)[C@@H]1OC [Reserpine, reserpine]
- hit confirmed by dose-responsiveness ([1]; 0.08 to 10 μM, SK7 ES cells): positive
- effect on differentiation into insulin-expressing cells [1]: enhanced insulin-positive staining; also recorded: increased insulin-producing cells
- effect on differentiation into insulin-expressing cells ([1]; listed as reserpine): concentration-dependent effect was observed
- concentration of maximum effect on insulin positive cells ([1]; concentration-dependent test at 0 to 10 μM (FIG. 4)): 0.63 µM
- effect on Pdx1 positive pancreatic precursor cells ([1]; reserpine 0.63 μM, Pargyline 1 μM (FIG. 6, 7)): did not change the number of pancreatic precursor cells
- promotion of differentiation into insulin-producing cells (Drd2KD cells): did not promote differentiation
